Data: paper PMC11125359 (Pharmaceuticals, 2024)
Where two headings read alike, the source gives them in different places.

Columns and labels:
α-amylase = assay: α-Amylase inhibition (anti-diabetic); assay type: biochemical; conditions: equal concentrations (1000 µg/mL); mean ± SE
α-glucosidase = assay: α-Glucosidase inhibition (anti-diabetic); assay type: biochemical; conditions: equal concentrations (1000 µg/mL); mean ± SE
[1] = molecular target: acetylcholinesterase (AChE) (Homo sapiens, UniProt P22303); assay: biochemical; conditions: same concentration (1000 µg/mL); mean ± SE
Chain of acetylcholinesterase (AChE) (P22303 32-614, species assumed): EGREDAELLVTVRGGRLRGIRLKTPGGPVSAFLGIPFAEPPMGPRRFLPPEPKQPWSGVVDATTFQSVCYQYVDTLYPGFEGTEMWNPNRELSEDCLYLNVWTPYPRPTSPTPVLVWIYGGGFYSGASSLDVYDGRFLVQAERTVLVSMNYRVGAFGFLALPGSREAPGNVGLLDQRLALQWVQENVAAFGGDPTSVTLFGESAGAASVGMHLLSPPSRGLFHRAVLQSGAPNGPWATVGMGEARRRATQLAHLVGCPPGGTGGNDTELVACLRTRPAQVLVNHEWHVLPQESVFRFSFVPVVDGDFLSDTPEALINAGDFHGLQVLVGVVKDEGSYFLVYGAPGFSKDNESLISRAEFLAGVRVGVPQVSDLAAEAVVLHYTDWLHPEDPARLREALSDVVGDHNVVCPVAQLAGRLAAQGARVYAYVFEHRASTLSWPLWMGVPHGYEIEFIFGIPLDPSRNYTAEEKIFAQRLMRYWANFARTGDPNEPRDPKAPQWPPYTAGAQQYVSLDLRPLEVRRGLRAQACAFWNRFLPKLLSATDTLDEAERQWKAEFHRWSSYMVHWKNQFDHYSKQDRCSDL

[2] = molecular target: bovine serum albumin (BSA) (Bos taurus, UniProt P02769); conditions: equal concentrations (1000 µg/mL); mean ± SE
Chain of bovine serum albumin (BSA) (P02769 25-607): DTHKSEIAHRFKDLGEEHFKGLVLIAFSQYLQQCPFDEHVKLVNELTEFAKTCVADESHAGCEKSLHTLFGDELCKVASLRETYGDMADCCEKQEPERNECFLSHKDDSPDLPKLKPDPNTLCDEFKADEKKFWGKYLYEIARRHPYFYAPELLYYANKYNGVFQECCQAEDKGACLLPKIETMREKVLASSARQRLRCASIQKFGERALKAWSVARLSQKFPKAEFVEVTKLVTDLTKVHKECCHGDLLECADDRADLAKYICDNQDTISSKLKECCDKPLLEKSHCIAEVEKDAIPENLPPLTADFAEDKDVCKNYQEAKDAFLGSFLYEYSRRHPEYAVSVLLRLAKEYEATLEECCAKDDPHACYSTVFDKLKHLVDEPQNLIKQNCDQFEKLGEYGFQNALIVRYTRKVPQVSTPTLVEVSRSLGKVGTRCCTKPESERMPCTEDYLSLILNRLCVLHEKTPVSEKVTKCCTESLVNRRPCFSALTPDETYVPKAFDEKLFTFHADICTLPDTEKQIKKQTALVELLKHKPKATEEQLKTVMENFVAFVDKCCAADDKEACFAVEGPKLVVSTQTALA

[3] = tested on: proteinase enzyme (trypsin); assay: Proteinase enzyme inhibition (anti-inflammatory); assay type: biochemical; conditions: equal concentrations (1000 µg/mL); mean ± SE
[4] = tested on: human colon cancer (Caco-2) cell line; assay: cells; assay type: cell-based; conditions: for Viability %, Caco-2, 1st concentration: Conc.: 5a 13.45, 5d 12.64, 5e 12.29, 5f 11.81, 7a 12.72, 7f 11.24, DOX 11.50; for Viability %, Caco-2, 2nd concentration: Conc.: 5a 26.91, 5d 25.27, 5e 24.58, 5f 23.63, 7a 25.43, 7f 22.48, DOX 23.00; for Viability %, Caco-2, 3rd concentration: Conc.: 5a 53.81, 5d 50.55, 5e 49.15, 5f 47.26, 7a 50.86, 7f 44.96, DOX 46.00; for Viability %, Caco-2, 4th concentration: Conc.: 5a 107.63, 5d 101.09, 5e 98.31, 5f 94.51, 7a 101.72, 7f 89.93, DOX 91.99; for Viability %, Caco-2, 5th concentration: Conc.: 5a 215.26, 5d 202.19, 5e 196.61, 5f 189.03, 7a 203.44, 7f 179.85, DOX 183.99; for IC50: Homo sapiens, Caco-2, 48 h, MTT, mean ± SE, read-out: Cytotoxic activity IC50, Colon (Caco-2); for Therapeutic Index (TI), Colon (Caco-2): IC50 on normal cells (WI-38)/IC50 on Caco-2
[5] = Cytotoxic activity, MTT assay, normal lung (WI-38); assay type: cell-based; conditions: human, WI-38 normal lung cells; for IC50 at 48 h: MTT, mean ± SE, read-out: Cytotoxic activity IC50, Normal Lung (WI-38)
caspase-3 [6] = assay: Caspase-3 ELISA in treated A549 cells; assay type: cell-based, human; conditions: DMSO control 85.92 ± 0.12
Bcl-2 [7] = assay: Bcl-2 ELISA in treated A549 cells; assay type: cell-based, human; conditions: DMSO control 9.83 ± 0.05
caspase-3 [8] = assay: Caspase-3 ELISA in treated Caco-2 cells; assay type: cell-based, human; conditions: DMSO control 97.06 ± 0.14
Bcl-2 [9] = assay: Bcl-2 ELISA in treated Caco-2 cells; assay type: cell-based, human; conditions: DMSO control 7.99 ± 0.08
[10] = Iron-reducing power (IRP); conditions: equal concentrations (1000 µg/mL); mean ± SE, three replicates
Description: (§1) All in vitro biological activities were assessed in the tested compounds at equal concentrations (1000 µg/mL). All assays were carried out in triplicate.
In vitro biological activities
(§2) The total antioxidant capacity (TAC) was determined by analyzing the green phosphate/Mo5+ complex at a wavelength (λ) of 695 nm, following the procedure described by Prieto
(§3) et al. Samples (at each concentration) were mixed with a reagent solution containing 0.3 N sulfuric
(§4) acid, 28 mM sodium phosphate, and 4 mM ammonium molybdate. Methanol (80%) was used in place
(§5) of the sample for the blank. The tubes were sealed and incubated in a boiling water bath for 90
(§6) minutes. After cooling to room temperature, the absorbance was measured at 695 nm against the
(§7) blank. Ascorbic acid was used at the same concentrations as a standard. The antioxidant capacity was
(§8) expressed as mg gallic acid equivalent per gram weight.
(§9) The iron reducing power was determined as µg/mL using the method proposed by Oyaizu
(§10) In brief, 1ml of the tested sample (at each concentration) was combined with 1mL of 200mM
(§11) sodium phosphate buffer (pH 6.6) and 1mL of 1% potassium ferricyanide. The mixture was then
(§12) incubated at 50°C for 20 minutes, followed by the addition of 1mL of trichloroacetic acid (10%). After
(§13) centrifugation at 2000rpm for 10 minutes, the upper layer solution (2.5 mL) was mixed with 2.5 mL of double deionized water and 1mL of fresh ferric chloride (0.1%). The absorbance was measured at
(§14) 700nm against a blank prepared without the sample. Ascorbic acid was used at the same
(§15) concentrations as a standard. A high absorbance at 700nm indicates a higher reducing power in the
(§16) The 1,1-Diphenyl-2-picryl-hydrazyl (DPPH) radical scavenging activities were evaluated using the method described by Rahman et al. An antioxidant substance capable of donating a
(§17) hydrogen atom to a solution containing DPPH- can reduce the stable free radical, causing the solution
(§18) to change color from violet to pale yellow. The remaining DPPH- radical was quantified by
(§19) nm using a spectroscopic method. Two milliliters of a DPPH solution (100 µM) in ethanol were mixed
(§20) with 2 mL of the sample (at each concentration). The reaction mixture for each concentration was
(§21) thoroughly vortexed and then incubated in the dark at room temperature for 30 minutes. The
(§22) absorbance was then measured spectrophotometrically at 518 nm against a blank (ethanol). For the
(§23) control, 2 mL of ethanol was added instead of the sample and run simultaneously with the test.
(§24) Ascorbic acid was used at the same concentrations as a positive control. Percent inhibition of the
(§25) DPPH free radical was calculated. The median inhibitory concentration (IC 50) for each tested
(§26) The procedure for the 2,2'-azinobis-(3-ethylbenzothiazoline-6-sulfonic acid) (ABTS) assay
(§27) potassium persulfate solution (2.4 mM). The working solution was prepared by mixing the two stock
(§28) solutions in equal quantities and allowing them to react at room temperature in a dark place for 14
(§29) hours. The solution was then diluted by mixing 1 mL of ABTS solution with 60 mL of methanol to
(§30) was prepared for each assay. The tested samples (at each concentration) were allowed to react with 1
(§31) mL of the ABTS solution, and the absorbance was taken at 734 nm after 7 minutes using a
(§32) spectrophotometer. The ABTS scavenging capacities of the samples were compared with that of
(§33) ascorbic acid (at the same concentrations).

[11] = ABTS radical scavenging assay; conditions: equal concentrations (1000 µg/mL); mean ± SE
Description: as §1
In vitro biological activities
as §2, §3, §4, §5, §6, §7, §8, §9, §10, §11, §12, §13, §14, §15, §16, §17, §18, §19, §20, §21, §22, §23, §24, §25, §26, §27, §28, §29, §30, §31, §32, §33

[12] = DPPH radical-scavenging activity; conditions: read-out: DPPH (IC50); mean ± SE, three replicates
Description: In vitro biological activities
as §16, §17, §18, §19, §20, §21, §22, §23, §24, §25

[13] = tested on: human lung cancer (A549) cell line; assay: Cytotoxic activity, MTT assay, lung (A549); conditions: for Viability %, A549, 1st concentration: Conc.: 5a 13.45, 5d 12.64, 5e 12.29, 5f 11.81, 7a 12.72, 7f 11.24, DOX 11.50; for Viability %, A549, 2nd concentration: Conc.: 5a 26.91, 5d 25.27, 5e 24.58, 5f 23.63, 7a 25.43, 7f 22.48, DOX 23.00; for Viability %, A549, 3rd concentration: Conc.: 5a 53.81, 5d 50.55, 5e 49.15, 5f 47.26, 7a 50.86, 7f 44.96, DOX 46.00; for Viability %, A549, 4th concentration: Conc.: 5a 107.63, 5d 101.09, 5e 98.31, 5f 94.51, 7a 101.72, 7f 89.93, DOX 91.99; for Viability %, A549, 5th concentration: Conc.: 5a 215.26, 5d 202.19, 5e 196.61, 5f 189.03, 7a 203.44, 7f 179.85, DOX 183.99; for IC50: Homo sapiens, A549, 48 h, read-out: Cytotoxic activity IC50, Lung (A549)
Description: It will be assayed against human lung cancer (A549) and colon (Caco-2) cell line in
comparison with normal lung (WI-38) cell line using 3-(4,5-dimethythiazol-2-yl)-2,5-diphenyl
tetrazolium bromide (MTT) assay by determining the optical density (OD) at 570 nm according to the
The cells were dispensed in a 96-well sterile microplate (3
µL of each compound or doxorubicin (positive control, in DMSO) for 48 h in a serum free medium
prior to the MTT assay. Subsequently, the media were carefully removed, and 40 µL of MTT (2.5
mg/mL) was added to each well and then incubated for an additional 4 h. Purple formazan dye
crystals were solubilized by the addition of 200 µL of DMSO. The absorbance was measured at 570 nm using a SpectraMax Paradigm Multi-Mode microplate reader. The relative cell viability was
experiments were conducted in triplicate. Percent of the cell-growth inhibition (%) and the IC 50 was
calculated using IC 50 calculation software. The concentrations used for calculating the IC 50 depend on

[14] = Total antioxidant capacity (TAC), phosphomolybdenum method; conditions: equal concentrations (1000 µg/mL); mean ± SE, three replicates
Description: as §1
In vitro biological activities
as §2, §3, §4, §5, §6, §7, §8, §9, §10, §11, §12, §13, §14, §15, §16, §17, §18, §19, §20, §21, §22, §23, §24, §25, §26, §27, §28, §29, §30, §31, §32, §33

[15] = Conc. as printed: 5a 53.81, 5d 50.55, 5e 49.15, 5f 47.26, 7a 50.86, 7f 44.96, DOX 46.00, read-out: Viability %, WI-38, 3rd concentration
[16] = Conc. as printed: 5a 107.63, 5d 101.09, 5e 98.31, 5f 94.51, 7a 101.72, 7f 89.93, DOX 91.99, read-out: Viability %, WI-38, 4th concentration
[17] = Conc.: 5a 13.45, 5d 12.64, 5e 12.29, 5f 11.81, 7a 12.72, 7f 11.24, DOX 11.50, read-out: Viability %, WI-38, 1st concentration
[18] = Conc.: 5a 26.91, 5d 25.27, 5e 24.58, 5f 23.63, 7a 25.43, 7f 22.48, DOX 23.00, read-out: Viability %, WI-38, 2nd concentration
[19] = Conc.: 5a 215.26, 5d 202.19, 5e 196.61, 5f 189.03, 7a 203.44, 7f 179.85, DOX 183.99, read-out: Viability %, WI-38, 5th concentration

| Compound | Inhibition (%) α-Amylase (α-amylase) [%] | Inhibition (%) α-Glucosidase (α-glucosidase) [%] | inhibition at 1000 µg/mL [1] [%] | Inhibition (%) Protein Denaturation [2] [%] | Inhibition (%) Proteinase [3] [%] | Viability %, Caco-2, 1st concentration [4] [%] | Viability %, Caco-2, 2nd concentration [4] [%] | Viability %, Caco-2, 3rd concentration [4] [%] | Viability %, Caco-2, 4th concentration [4] [%] | Viability %, Caco-2, 5th concentration [4] [%] | IC50 [4] [µM] | Therapeutic Index (TI), Colon (Caco-2) [4] | viability at 48 h [5, 15] [%] | viability at 48 h [5, 16] [%] | viability at 48 h [5, 17] [%] | viability at 48 h [5, 18] [%] | Iron-Reducing Power (IRP) [10] [µg/mL] | ABTS (%) inhibition [11] [%] | IC50 [12] [µM] | Total Antioxidant Capacity (TAC) [14] [mg Gallic Acid/g] | also measured |
| --- | --- | --- | --- | --- | --- | --- | --- | --- | --- | --- | --- | --- | --- | --- | --- | --- | --- | --- | --- | --- | --- |
| O=C(Nc1ccccc1)c1c(Nc2ccccc2)n[nH]c1N=Cc1ccc(N2CCCCC2)cc1 [5a] | 31.24 ± 0.05 | 26.87 ± 0.05 | 42.05 ± 0.03 | 26.83 ± 0.03 | 23.33 ± 0.03 | 82.93 | 74.41 | 55.38 | 33.22 | 25.84 | 60.29 ± 0.14 | 7.32 | 69.5 | 54.2 | 81.4 | 75.5 | 34.27 ± 0.07 | 75.46 ± 0.05 | 26.43 ± 0.01 | 52.25 ± 0.19 | viability at 48 h [5, 19]: 38.3%; IC50 at 48 h [5]: 442 ± 8.8 µM; Caspase-3 level, Lung (A549) (caspase-3 [6]): 184.74 ± 0.26 pg/mL; Bcl-2 level, Lung (A549) (Bcl-2 [7]): 6.55 ± 0.03 ng/mL; Caspase-3 level, Colon (Caco-2) (caspase-3 [8]): 208.68 ± 0.31 pg/mL; Bcl-2 level, Colon (Caco-2) (Bcl-2 [9]): 5.33 ± 0.05 ng/mL; Viability %, A549, 1st concentration [13]: 97.46%; Viability %, A549, 2nd concentration [13]: 87.31%; Viability %, A549, 3rd concentration [13]: 60.91%; Viability %, A549, 4th concentration [13]: 46.48%; Viability %, A549, 5th concentration [13]: 20.20%; IC50 [13]: 68.84 ± 0.14 µM |
| COc1ccc(Nc2n[nH]c(/N=C/c3ccc(N4CCCCC4)cc3)c2C(=O)Nc2ccccc2)cc1 [5d] | 32.37 ± 0.05 | 27.84 ± 0.05 | 62 ± 0.04 | 27.79 ± 0.03 | 24.17 ± 0.03 | 70.71 | 51.15 | 40.54 | 26.77 | 23.43 | 62.33 ± 0.14 | 11.73 | 82.7 | 76.8 | 98.7 | 90.7 | 35.51 ± 0.07 | 78.18 ± 0.05 | 23.98 ± 0.01 | 54.13 ± 0.20 | Inhibition (%) Acetylcholinesterase [1]: 62.11 ± 0.04%; viability at 48 h [5, 19]: 62.7%; IC50 at 48 h [5]: 732 ± 10.5 µM; Caspase-3 level, Lung (A549) (caspase-3 [6]): 300.73 ± 0.42 pg/mL; Bcl-2 level, Lung (A549) (Bcl-2 [7]): 2.81 ± 0.01 ng/mL; Caspase-3 level, Colon (Caco-2) (caspase-3 [8]): 242.65 ± 0.36 pg/mL; Bcl-2 level, Colon (Caco-2) (Bcl-2 [9]): 3.20 ± 0.03 ng/mL; Viability %, A549, 1st concentration [13]: 90.46%; Viability %, A549, 2nd concentration [13]: 79.41%; Viability %, A549, 3rd concentration [13]: 48.01%; Viability %, A549, 4th concentration [13]: 36.58%; Viability %, A549, 5th concentration [13]: 18.10%; IC50 [13]: 48.61 ± 0.14 µM |
| COc1ccc(Nc2n[nH]c(/N=C/c3ccc(N4CCCCC4)cc3)c2C(=O)Nc2ccc(C)cc2)cc1 [5e] | 31.83 ± 0.05 | 27.37 ± 0.05 | 42.83 ± 0.03 | 27.33 ± 0.03 | 23.76 ± 0.03 | 70.21 | 50.65 | 40.04 | 26.27 | 11.43 | 40.99 ± 0.2 | 15.81 | 81 | 65.7 | 92.9 | 87 | 34.91 ± 0.07 | 76.87 ± 0.05 | 23.71 ± 0.01 | 53.23 ± 0.20 | viability at 48 h [5, 19]: 38.3%; IC50 at 48 h [5]: 648 ± 7.57 µM; Caspase-3 level, Lung (A549) (caspase-3 [6]): 214.81 ± 0.30 pg/mL; Bcl-2 level, Lung (A549) (Bcl-2 [7]): 3.93 ± 0.02 ng/mL; Caspase-3 level, Colon (Caco-2) (caspase-3 [8]): 315.45 ± 0.46 pg/mL; Bcl-2 level, Colon (Caco-2) (Bcl-2 [9]): 2.46 ± 0.02 ng/mL; Viability %, A549, 1st concentration [13]: 90.96%; Viability %, A549, 2nd concentration [13]: 79.91%; Viability %, A549, 3rd concentration [13]: 48.51%; Viability %, A549, 4th concentration [13]: 37.08%; Viability %, A549, 5th concentration [13]: 18.60%; IC50 [13]: 47.74 ± 0.2 µM |
| COc1ccc(Nc2n[nH]c(N=Cc3c(C)nn(-c4ccccc4)c3Cl)c2C(=O)Nc2ccc(Cl)cc2)cc1 [6f] | 18.22 ± 0.03 | 15.67 ± 0.03 | 24.52 ± 0.01 | 15.64 ± 0.02 | 13.60 ± 0.02 |  |  |  |  |  |  |  |  |  |  |  | 19.98 ± 0.04 | 44.00 ± 0.03 | 37.6 ± 0.02 | 30.47 ± 0.11 |  |
| Cc1ccc(NC(=O)c2c(Nc3ccccc3)n[nH]c2N=Cc2c(C)n(C)n(-c3ccccc3)c2=O)cc1 [7b] | 17.88 ± 0.03 | 15.38 ± 0.03 | 24.07 ± 0.01 | 15.36 ± 0.02 | 13.35 ± 0.02 |  |  |  |  |  |  |  |  |  |  |  | 19.62 ± 0.04 | 43.19 ± 0.03 | 42.45 ± 0.02 | 29.91 ± 0.11 |  |
| Cc1c(C=Nc2[nH]nc(Nc3ccccc3)c2C(=O)Nc2ccc(Cl)cc2)c(=O)n(-c2ccccc2)n1C [7c] | 17.91 ± 0.03 | 15.41 ± 0.03 | 24.11 ± 0.01 | 15.38 ± 0.02 | 13.38 ± 0.02 |  |  |  |  |  |  |  |  |  |  |  | 19.65 ± 0.04 | 43.27 ± 0.03 | 40.72 ± 0.02 | 29.96 ± 0.11 |  |
| COc1ccc(Nc2n[nH]c(N=Cc3c(C)n(C)n(-c4ccccc4)c3=O)c2C(=O)Nc2ccccc2)cc1 [7d] | 18.16 ± 0.03 | 15.61 ± 0.03 | 24.44 ± 0.01 | 15.59 ± 0.02 | 13.56 ± 0.02 |  |  |  |  |  |  |  |  |  |  |  | 19.92 ± 0.04 | 43.85 ± 0.03 | 40.53 ± 0.02 | 30.36 ± 0.11 |  |
| COc1ccc(Nc2n[nH]c(N=Cc3c(C)n(C)n(-c4ccccc4)c3=O)c2C(=O)Nc2ccc(C)cc2)cc1 [7e] | 9.38 ± 0.02 | 8.07 ± 0.02 | 12.62 ± 0.01 | 8.05 ± 0.01 | 4.81 ± 0.01 |  |  |  |  |  |  |  |  |  |  |  | 10.29 ± 0.02 | 22.65 ± 0.01 | 51.98 ± 0.03 | 15.68 ± 0.06 |  |
